One assay deals with T1, human eIF4E protein (Homo sapiens, UniProt P06730).
T1 construct: purchased Novus NBP-45314
Put plainly: Biochemical competitive binding assay (TR-FRET competition, EDA-m7GDP-ATTO-647N probe). To be noted: read-out: hEIF4E TR-FRET IC50. The gist of the method: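 His-tagged human eIF4E (4 nM) was preincubated with Eu-anti-His antibody (2.5 nM) and added to compound (11-point, 4-fold dilutions) for 15 min. Then 5 nM EDA-m7GDP-ATTO-647N was added for 15 min, in HEPES pH 7.5, 100 mM KCl. The 665/620 TR-FRET ratio was normalized to controls, and IC50 was taken from 4-parameter fits.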

The test system of assay [1] is COLO 205 colorectal tumor cells. The assay is described as follows: Tumor cell viability inhibition assay (CellTiter-Glo 2.0, 72 hours). The class given is cell-based. Conditions: COLO 205 cell viability. The method, boiled down:
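COLO 205 cells (1500/well, RPMI-1640 + 10% FBS) exposed for 72 h to an 11-point, 4-fold dilution series; cellular ATP read by CellTiter-Glo 2.0 luminescence. Data normalized to DMSO and maximum-inhibition controls; IC50 from 4-parameter curve fit.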

T1 sequence (P06730 whole entry): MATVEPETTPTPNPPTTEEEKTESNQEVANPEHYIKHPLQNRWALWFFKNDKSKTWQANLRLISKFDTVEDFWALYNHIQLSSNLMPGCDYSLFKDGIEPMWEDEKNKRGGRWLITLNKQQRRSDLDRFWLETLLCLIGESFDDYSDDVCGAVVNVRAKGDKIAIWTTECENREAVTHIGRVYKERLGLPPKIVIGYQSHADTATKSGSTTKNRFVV

Regarding `[2H]C([2H])([2H])N(Cc1ccnc(OC)c1)C1CCc2nc(C)n(CCOc3ccc(Cl)cc3-c3cc(C)nc4c(C(=O)O)csc34)c(=O)c2C1` (stereo not shown) [Compound 125, 7-(5-chloro-2-(2-(6-(((2-methoxypyridin-4-yl)methyl)(methyl-d3)amino)-2-methyl-4-oxo-5,6,7,8-tetrahydroquinazolin-3(4H)-yl)ethoxy)phenyl)-5-methylthieno[3,2-b]pyridine-3-carboxylic acid], the IC50 at human eIF4E protein was < 0.1 µM; in assay [1] (Homo sapiens, COLO 205, 72 h) it was < 5 µM.
The like results for `Cc1cc(-c2cc(Cl)ccc2OCCn2c(C)nc3c(c2=O)CC(N2CCC(C(F)(F)F)CC2)CC3)c2scc(C(=O)NS(C)(=O)=O)c2n1` (single isomer, unassigned) [Compound 432] were, in that order, < 0.1 µM and < 5 µM.
With `Cc1cc(-c2cc(Cl)ccc2OCCn2c(C)nc3c(c2=O)C[C@H](N2CCCC[C@H]2C)CC3)c2scc(C(=O)O)c2n1` (single isomer, unassigned) [Compound 408], the IC50 on human eIF4E protein was < 0.1 µM; in assay [1] (Homo sapiens, COLO 205, 72 h), 5 to 20 µM.
For `Cc1cc(-c2cc(Cl)ccc2OCCn2c(C)nc3c(c2=O)C[C@@H](N2CCO[C@@H](CC(F)(F)F)C2)CC3)c2scc(C(=O)O)c2n1` (single isomer, unassigned) [Compound 524] the same measures were < 0.1 µM and < 5 µM.
Turning to `Cc1cc(-c2cc(Cl)ccc2C#CCn2c(C)nc3c(c2=O)CC(C)(N2CCCC4(C2)CC4(F)F)CC3)c2scc(C(=O)O)c2n1` (single isomer, unassigned) [Compound 608], the IC50 was < 0.1 µM at human eIF4E protein and < 5 µM in assay [1].
As to `Cc1cc(-c2cc(Cl)ccc2OCCn2c(C)nc3c(c2=O)CC(N2CCC4(CC2)CN(CC(F)(F)F)CCO4)CC3)c2scc(C(=O)O)c2n1` (single isomer, unassigned) [Compound 518], the IC50 was < 0.1 µM on human eIF4E protein and < 5 µM in assay [1].
For `Cc1cc(-c2cc(Cl)ccc2OCCn2c(C)nc3c(c2=O)C[C@H](N2CCO[C@@H](CC(F)(F)F)C2)CC3)c2scc(C(=O)O)c2n1` (single isomer, unassigned) [Compound 523], the IC50 at human eIF4E protein is < 0.1 µM; in assay [1] (Homo sapiens, COLO 205, 72 h), < 5 µM.
For `COC1CCN(C2(C)CCc3nc(C)n(CCOc4ccc(Cl)cc4-c4cc(C)nc5c(C(=O)O)csc45)c(=O)c3C2)CC1(C)C` (single isomer, unassigned) [Compound 559], the IC50 at human eIF4E protein was in the range of 0.1 to 0.5 µM; in assay [1] (Homo sapiens, COLO 205, 72 h), 5 to 20 µM.
On to `Cc1cc(-c2cc(Cl)ccc2OCCn2c(C)nc3c(c2=O)CC(N2CC4(CCC(F)(F)CC4)C2)CC3)c2scc(C(=O)NS(C)(=O)=O)c2n1` (single isomer, unassigned) [Compound 364], for which the results for the IC50 (on human eIF4E protein; in assay [1]) were < 0.1 µM and < 5 µM, respectively.
`Cc1cc(-c2cc(Cl)ccc2OCCn2c(C)nc3c(c2=O)C[C@H](N2CCC[C@]4(C2)CC4(F)F)CC3(C)C)c2scc(C(=O)O)c2n1` (single isomer, unassigned) [Compound 438]: the IC50 was < 0.1 µM on human eIF4E protein and < 5 µM in assay [1] (Homo sapiens, COLO 205, 72 h).
Turning to `Cc1cc(-c2cc(Cl)ccc2OCCn2c(C)nc3c(c2=O)C[C@@H](N2CCC[C@@H](OC(F)(F)F)C2)CC3)c2scc(C(=O)O)c2n1` (single isomer, unassigned) [Compound 458], the IC50 at human eIF4E protein is < 0.1 µM; in assay [1] (Homo sapiens, COLO 205, 72 h), < 5 µM.
As for `Cc1cc(-c2cc(Cl)ccc2OCCn2c(C)nc3c(c2=O)CC(N2CCC(OC(F)(F)F)CC2)CC3)c2scc(C(=O)NS(=O)(=O)C(F)(F)F)c2n1` (single isomer, unassigned) [Compound 459], the IC50 at human eIF4E protein was < 0.1 µM; in assay [1] (Homo sapiens, COLO 205, 72 h), 5 to 20 µM.
The like results for `Cc1cc(-c2cc(Cl)ccc2OCCn2c(C)nc3c(c2=O)CC(N2C4CCC2CC(F)(F)C4)CC3)c2scc(C(=O)O)c2n1` (stereo not shown) [Compound 126] were, in that order, < 0.1 µM and < 5 µM.
Consider `Cc1cc(-c2cc(Cl)ccc2OCCn2c(C)nc3c(c2=O)CC(N2CCC(OC(F)(F)F)CC2)CC3)c2scc(C(=O)NS(C)(=O)=O)c2n1` (single isomer, unassigned) [Compound 104], for which the IC50 was < 0.1 µM on human eIF4E protein and < 5 µM in assay [1] (Homo sapiens, COLO 205, 72 h).
